According to PubChem BioAssay AID1919013 (Molecular Pharmacology Branch, DTP, NCI, 2023):

Tested on: LG0703-F498-PDC complex spheroid growth
Experiment: Anticancer human tumor LG0703-F498-PDC patient-derived lung adenocarcinoma cell line growth inhibition [AhR]
Conditions: for IC50: curve of first compound; for viability, T/C: stronger effect = lower value
Outline: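 Agents were dosed in half-log steps down from roughly clinical Cmax, or from 10 microM where Cmax was unknown, alone and with AhR antagonists. Read-out: percent test/control growth of tumor spheroids containing HUVEC and MSC stromal cells.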

[1] = second compound 0.1 µM, first compound 0.00949 µM
[2] = second compound 0.1 µM, first compound 0.03 µM
[3] = second compound 0.1 µM, first compound 0.0949 µM
[4] = second compound 0.1 µM, first compound 0.3 µM
[5] = second compound 0.316 µM, first compound 0.00949 µM
[6] = second compound 0.316 µM, first compound 0.03 µM
[7] = second compound 0.316 µM, first compound 0.0949 µM
[8] = second compound 0.316 µM, first compound 0.3 µM
[9] = second compound 1 µM, first compound 0.00949 µM
[10] = second compound 1 µM, first compound 0.03 µM
[11] = second compound 1 µM, first compound 0.0949 µM
[12] = second compound 1 µM, first compound 0.3 µM
[13] = second compound 3.16 µM, first compound 0.00949 µM
[14] = second compound 3.16 µM, first compound 0.03 µM
[15] = second compound 3.16 µM, first compound 0.0949 µM
[16] = second compound 3.16 µM, first compound 0.3 µM
[17] = second compound 10 µM, first compound 0.00949 µM
[18] = second compound 10 µM, first compound 0.03 µM
[19] = second compound 10 µM, first compound 0.0949 µM
[20] = second compound 10 µM, first compound 0.3 µM
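Also: luminescence taken as a proxy for viable cell amount.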
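For viability, T/C in this document: percent of DMSO vehicle control where 100% means growth equal to vehicle.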

In the case of `COc1ccc([C@@H](O)c2cc(-c3ncnc4cc(N5CCOCC5)ccc34)c(F)cc2Cl)nn1` + CC(CO)NC(=O)c1cc(-c2ccc(Cl)cc2)nn(-c2cnn(C)c2)c1=O, the IC50 (second compound 0.1 µM) is reported as 3650 nM, the IC50 (second compound 0.316 µM) is reported as 4790 nM and the IC50 (second compound 1 µM) is reported as 5260 nM. For the same compound, the IC50 (second compound 3.16 µM) was 3180 nM, the IC50 (second compound 10 µM) was 2910 nM and the viability, T/C (second compound 0.1 µM, first compound 0.0316 µM) was 88.9%. The viability, T/C (second compound 0.1 µM, first compound 0.1 µM) was 89.9%, the viability, T/C (second compound 0.1 µM, first compound 0.316 µM) was 93.5% and the viability, T/C (second compound 0.1 µM, first compound 1 µM) was 76%. The viability, T/C (second compound 0.1 µM, first compound 3.16 µM) was 53.5%, the viability, T/C (second compound 0.1 µM, first compound 10 µM) was 31.7% and the viability, T/C (second compound 0.316 µM, first compound 0.0316 µM) was 94.2%. The viability, T/C (second compound 0.316 µM, first compound 0.1 µM) was 95.8%, the viability, T/C (second compound 0.316 µM, first compound 0.316 µM) was 81% and the viability, T/C (second compound 0.316 µM, first compound 1 µM) was 74.5%. The viability, T/C (second compound 0.316 µM, first compound 3.16 µM) was 64.5%, the viability, T/C (second compound 0.316 µM, first compound 10 µM) was 30.5% and the viability, T/C (second compound 1 µM, first compound 0.0316 µM) was 97.4%. For the same compound, the viability, T/C (second compound 1 µM, first compound 0.1 µM) was 95.1%, the viability, T/C (second compound 1 µM, first compound 0.316 µM) was 88.1% and the viability, T/C (second compound 1 µM, first compound 1 µM) was 83.8%. The viability, T/C (second compound 1 µM, first compound 3.16 µM) was 61.6%, the viability, T/C (second compound 1 µM, first compound 10 µM) was 34.4% and the viability, T/C (second compound 3.16 µM, first compound 0.0316 µM) was 93.1%. The viability, T/C (second compound 3.16 µM, first compound 0.1 µM) was 86.4%, the viability, T/C (second compound 3.16 µM, first compound 0.316 µM) was 88.1% and the viability, T/C (second compound 3.16 µM, first compound 1 µM) was 68.3%. It also gave a viability, T/C (second compound 3.16 µM, first compound 3.16 µM) of 51.2%, a viability, T/C (second compound 3.16 µM, first compound 10 µM) of 32.1% and a viability, T/C (second compound 10 µM, first compound 0.0316 µM) of 78.5%. The viability, T/C (second compound 10 µM, first compound 0.1 µM) was 88.3%, the viability, T/C (second compound 10 µM, first compound 0.316 µM) was 77.1% and the viability, T/C (second compound 10 µM, first compound 1 µM) was 69.5%. It also gave a viability, T/C (second compound 10 µM, first compound 3.16 µM) of 48.5% and a viability, T/C (second compound 10 µM, first compound 10 µM) of 33.4%.
`Nc1ncn(C2CC(O)C(CO)S2)c(=O)n1` (stereo not given) + CC(CO)NC(=O)c1cc(-c2ccc(Cl)cc2)nn(-c2cnn(C)c2)c1=O showed an IC50 (second compound 0.1 µM) of over 300 nM, an IC50 (second compound 0.316 µM) of over 300 nM and an IC50 (second compound 1 µM) of over 300 nM. For the same compound, the IC50 (second compound 3.16 µM) was over 300 nM, the IC50 (second compound 10 µM) was over 300 nM and the viability, T/C (second compound 0.1 µM, first compound 0.000949 µM) was 89.3%. It also gave a viability, T/C (second compound 0.1 µM, first compound 0.003 µM) of 96.6%, a viability, T/C [1] of 95.6% and a viability, T/C [2] of 102%. The viability, T/C [3] was 92.8%, the viability, T/C [4] was 91.8% and the viability, T/C (second compound 0.316 µM, first compound 0.000949 µM) was 108%. For the same compound, the viability, T/C (second compound 0.316 µM, first compound 0.003 µM) was 93.9%, the viability, T/C [5] was 96.2% and the viability, T/C [6] was 103%. For the same compound, the viability, T/C [7] was 97.1%, the viability, T/C [8] was 97.8% and the viability, T/C (second compound 1 µM, first compound 0.000949 µM) was 82.4%. It also gave a viability, T/C (second compound 1 µM, first compound 0.003 µM) of 92%, a viability, T/C [9] of 90.2% and a viability, T/C [10] of 76.9%. For the same compound, the viability, T/C [11] was 84.8%, the viability, T/C [12] was 97.7% and the viability, T/C (second compound 3.16 µM, first compound 0.000949 µM) was 80.5%. The viability, T/C (second compound 3.16 µM, first compound 0.003 µM) was 90.9%, the viability, T/C [13] was 78.3% and the viability, T/C [14] was 94.8%. For the same compound, the viability, T/C [15] was 96.1%, the viability, T/C [16] was 89.5% and the viability, T/C (second compound 10 µM, first compound 0.000949 µM) was 86.9%. The viability, T/C (second compound 10 µM, first compound 0.003 µM) was 86.7%, the viability, T/C [17] was 84.9% and the viability, T/C [18] was 86.7%. The viability, T/C [19] was 81.9% and the viability, T/C [20] was 92.2%.
In the case of `O=C(C=Cn1cnc(-c2cc(C(F)(F)F)cc(C(F)(F)F)c2)n1)NNc1cnccn1` + CC(CO)NC(=O)c1cc(-c2ccc(Cl)cc2)nn(-c2cnn(C)c2)c1=O, the IC50 (second compound 0.1 µM) is reported as 60 nM, the IC50 (second compound 0.316 µM) is reported as 45.6 nM and the IC50 (second compound 1 µM) is reported as 57.3 nM. It also gave an IC50 (second compound 3.16 µM) of 26.9 nM, an IC50 (second compound 10 µM) of 39.7 nM and a viability, T/C [1] of 68.1%. For the same compound, the viability, T/C [2] was 64.5%, the viability, T/C [3] was 40.4% and the viability, T/C [4] was 40.6%. It also gave a viability, T/C (second compound 0.1 µM, first compound 0.949 µM) of 37.8%, a viability, T/C (second compound 0.1 µM, first compound 3 µM) of 36.9% and a viability, T/C [5] of 67.3%. The viability, T/C [6] was 54.5%, the viability, T/C [7] was 42.1% and the viability, T/C [8] was 36.2%. It also gave a viability, T/C (second compound 0.316 µM, first compound 0.949 µM) of 35.6%, a viability, T/C (second compound 0.316 µM, first compound 3 µM) of 32.4% and a viability, T/C [9] of 64.8%. The viability, T/C [10] was 54.1%, the viability, T/C [11] was 48% and the viability, T/C [12] was 36.7%. The viability, T/C (second compound 1 µM, first compound 0.949 µM) was 34.1%, the viability, T/C (second compound 1 µM, first compound 3 µM) was 34.1% and the viability, T/C [13] was 59.5%. The viability, T/C [14] was 50.1%, the viability, T/C [15] was 36.1% and the viability, T/C [16] was 38.2%. The viability, T/C (second compound 3.16 µM, first compound 0.949 µM) was 28.7%, the viability, T/C (second compound 3.16 µM, first compound 3 µM) was 31.4% and the viability, T/C [17] was 61%. For the same compound, the viability, T/C [18] was 54.7%, the viability, T/C [19] was 35.7% and the viability, T/C [20] was 33.3%. It also gave a viability, T/C (second compound 10 µM, first compound 0.949 µM) of 28.6% and a viability, T/C (second compound 10 µM, first compound 3 µM) of 28.9%.
